The values below come from ChEMBL document CHEMBL5678818, “Discovery of potent SOS1 inhibitors that block RAS activation via disruption of the RAS-SOS1 interaction” (Proc Natl Acad Sci U S A, 2019).

Assay [1] concerns Serine/threonine-protein kinase B-raf (Homo sapiens), P15056 [V600E]. The experiment in a line: Inhibition of BRAF V600E mutant (unknown origin) assessed as residual activity at 1000 nM by KINOMEscan analysis relative to control.
Assay [2] concerns the target Calcium/calmodulin-dependent protein kinase kinase 2 (Homo sapiens) (UniProt Q96RR4). The experiment in a line: Inhibition of CAMKK2 (unknown origin) assessed as residual activity at 1000 nM by KINOMEscan analysis relative to control.
The target of assay [3] is Cyclin-dependent kinase 4/cyclin D1 (Homo sapiens) (UniProt P11802+P24385). The experiment in a line: Inhibition of CDK4-cyclin D1 (unknown origin) assessed as residual activity at 1000 nM by KINOMEscan analysis relative to control. The class given is protein-complex assay.
The target in assay [4] is Dual specificity tyrosine-phosphorylation-regulated kinase 1B (Homo sapiens) (UniProt Q9Y463). The experiment in a line: Inhibition of DYRK1B (unknown origin) assessed as residual activity at 1000 nM by KINOMEscan analysis relative to control.
Chain of Dual specificity tyrosine-phosphorylation-regulated kinase 1B (Homo sapiens) (Q9Y463 whole entry, looked up): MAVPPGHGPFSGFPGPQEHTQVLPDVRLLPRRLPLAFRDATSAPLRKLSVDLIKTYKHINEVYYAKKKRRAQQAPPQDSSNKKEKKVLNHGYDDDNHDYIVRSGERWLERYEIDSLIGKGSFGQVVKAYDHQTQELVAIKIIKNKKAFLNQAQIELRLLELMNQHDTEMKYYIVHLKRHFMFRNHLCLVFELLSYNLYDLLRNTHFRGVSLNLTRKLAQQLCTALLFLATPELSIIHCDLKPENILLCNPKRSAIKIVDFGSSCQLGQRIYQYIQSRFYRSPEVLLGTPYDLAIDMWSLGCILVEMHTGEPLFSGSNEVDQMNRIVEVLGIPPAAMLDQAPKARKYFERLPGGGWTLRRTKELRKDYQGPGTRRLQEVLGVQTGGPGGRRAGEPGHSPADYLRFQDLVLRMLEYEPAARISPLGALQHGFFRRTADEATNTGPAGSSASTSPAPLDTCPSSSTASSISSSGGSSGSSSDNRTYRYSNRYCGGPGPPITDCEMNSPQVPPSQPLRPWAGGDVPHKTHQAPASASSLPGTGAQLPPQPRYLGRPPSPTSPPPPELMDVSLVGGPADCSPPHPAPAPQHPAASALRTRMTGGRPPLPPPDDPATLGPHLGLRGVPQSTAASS
Assay [5] addresses Fibroblast growth factor receptor 2 (Homo sapiens) (UniProt P21802). The experiment in a line: Inhibition of FGFR2 (unknown origin) assessed as residual activity at 1000 nM by KINOMEscan analysis relative to control.
Assay [6] deals with T1, Cyclin-G-associated kinase (Homo sapiens) (UniProt O14976).
T1 sequence (whole entry): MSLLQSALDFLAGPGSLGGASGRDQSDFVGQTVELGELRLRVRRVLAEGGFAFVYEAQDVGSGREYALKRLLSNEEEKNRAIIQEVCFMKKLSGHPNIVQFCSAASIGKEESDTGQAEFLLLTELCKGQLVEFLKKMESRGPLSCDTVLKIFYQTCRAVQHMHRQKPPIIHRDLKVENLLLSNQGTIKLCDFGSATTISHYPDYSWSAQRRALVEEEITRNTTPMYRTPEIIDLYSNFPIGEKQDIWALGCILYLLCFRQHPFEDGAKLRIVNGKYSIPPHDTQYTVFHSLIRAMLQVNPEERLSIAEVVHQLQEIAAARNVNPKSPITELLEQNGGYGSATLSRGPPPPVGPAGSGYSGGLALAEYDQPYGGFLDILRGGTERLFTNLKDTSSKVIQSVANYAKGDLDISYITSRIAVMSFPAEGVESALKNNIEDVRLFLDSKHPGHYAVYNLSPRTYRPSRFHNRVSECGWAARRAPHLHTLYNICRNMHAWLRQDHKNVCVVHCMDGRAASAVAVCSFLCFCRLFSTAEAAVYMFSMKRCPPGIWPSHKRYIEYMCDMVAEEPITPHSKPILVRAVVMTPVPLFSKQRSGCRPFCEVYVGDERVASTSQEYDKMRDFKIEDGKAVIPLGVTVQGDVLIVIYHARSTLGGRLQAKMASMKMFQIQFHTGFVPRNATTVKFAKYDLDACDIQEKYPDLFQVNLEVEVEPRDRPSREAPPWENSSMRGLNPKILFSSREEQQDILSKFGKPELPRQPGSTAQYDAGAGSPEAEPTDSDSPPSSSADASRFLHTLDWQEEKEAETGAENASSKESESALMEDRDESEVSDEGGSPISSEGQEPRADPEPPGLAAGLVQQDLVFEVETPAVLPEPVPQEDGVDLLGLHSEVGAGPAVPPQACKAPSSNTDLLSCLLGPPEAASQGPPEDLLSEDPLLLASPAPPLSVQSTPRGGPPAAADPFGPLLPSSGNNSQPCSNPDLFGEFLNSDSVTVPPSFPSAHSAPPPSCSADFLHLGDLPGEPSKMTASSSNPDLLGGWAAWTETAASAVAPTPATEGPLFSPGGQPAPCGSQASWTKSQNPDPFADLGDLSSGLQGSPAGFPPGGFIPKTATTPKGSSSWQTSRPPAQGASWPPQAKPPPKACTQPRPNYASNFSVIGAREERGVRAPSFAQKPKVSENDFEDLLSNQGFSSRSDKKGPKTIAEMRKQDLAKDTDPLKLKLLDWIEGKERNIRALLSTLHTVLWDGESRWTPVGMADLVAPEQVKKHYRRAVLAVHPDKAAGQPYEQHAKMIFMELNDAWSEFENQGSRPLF
In words: Inhibition of GAK (unknown origin) assessed as residual activity at 1000 nM by KINOMEscan analysis relative to control.

The target of assay [7] is Mitogen-activated protein kinase kinase kinase 4 (Homo sapiens) (UniProt Q9Y6R4). In words: Inhibition of MAP3K4 (unknown origin) assessed as residual activity at 1000 nM by KINOMEscan analysis relative to control.
Chain of Mitogen-activated protein kinase kinase kinase 4 (Homo sapiens) (Q9Y6R4 whole entry): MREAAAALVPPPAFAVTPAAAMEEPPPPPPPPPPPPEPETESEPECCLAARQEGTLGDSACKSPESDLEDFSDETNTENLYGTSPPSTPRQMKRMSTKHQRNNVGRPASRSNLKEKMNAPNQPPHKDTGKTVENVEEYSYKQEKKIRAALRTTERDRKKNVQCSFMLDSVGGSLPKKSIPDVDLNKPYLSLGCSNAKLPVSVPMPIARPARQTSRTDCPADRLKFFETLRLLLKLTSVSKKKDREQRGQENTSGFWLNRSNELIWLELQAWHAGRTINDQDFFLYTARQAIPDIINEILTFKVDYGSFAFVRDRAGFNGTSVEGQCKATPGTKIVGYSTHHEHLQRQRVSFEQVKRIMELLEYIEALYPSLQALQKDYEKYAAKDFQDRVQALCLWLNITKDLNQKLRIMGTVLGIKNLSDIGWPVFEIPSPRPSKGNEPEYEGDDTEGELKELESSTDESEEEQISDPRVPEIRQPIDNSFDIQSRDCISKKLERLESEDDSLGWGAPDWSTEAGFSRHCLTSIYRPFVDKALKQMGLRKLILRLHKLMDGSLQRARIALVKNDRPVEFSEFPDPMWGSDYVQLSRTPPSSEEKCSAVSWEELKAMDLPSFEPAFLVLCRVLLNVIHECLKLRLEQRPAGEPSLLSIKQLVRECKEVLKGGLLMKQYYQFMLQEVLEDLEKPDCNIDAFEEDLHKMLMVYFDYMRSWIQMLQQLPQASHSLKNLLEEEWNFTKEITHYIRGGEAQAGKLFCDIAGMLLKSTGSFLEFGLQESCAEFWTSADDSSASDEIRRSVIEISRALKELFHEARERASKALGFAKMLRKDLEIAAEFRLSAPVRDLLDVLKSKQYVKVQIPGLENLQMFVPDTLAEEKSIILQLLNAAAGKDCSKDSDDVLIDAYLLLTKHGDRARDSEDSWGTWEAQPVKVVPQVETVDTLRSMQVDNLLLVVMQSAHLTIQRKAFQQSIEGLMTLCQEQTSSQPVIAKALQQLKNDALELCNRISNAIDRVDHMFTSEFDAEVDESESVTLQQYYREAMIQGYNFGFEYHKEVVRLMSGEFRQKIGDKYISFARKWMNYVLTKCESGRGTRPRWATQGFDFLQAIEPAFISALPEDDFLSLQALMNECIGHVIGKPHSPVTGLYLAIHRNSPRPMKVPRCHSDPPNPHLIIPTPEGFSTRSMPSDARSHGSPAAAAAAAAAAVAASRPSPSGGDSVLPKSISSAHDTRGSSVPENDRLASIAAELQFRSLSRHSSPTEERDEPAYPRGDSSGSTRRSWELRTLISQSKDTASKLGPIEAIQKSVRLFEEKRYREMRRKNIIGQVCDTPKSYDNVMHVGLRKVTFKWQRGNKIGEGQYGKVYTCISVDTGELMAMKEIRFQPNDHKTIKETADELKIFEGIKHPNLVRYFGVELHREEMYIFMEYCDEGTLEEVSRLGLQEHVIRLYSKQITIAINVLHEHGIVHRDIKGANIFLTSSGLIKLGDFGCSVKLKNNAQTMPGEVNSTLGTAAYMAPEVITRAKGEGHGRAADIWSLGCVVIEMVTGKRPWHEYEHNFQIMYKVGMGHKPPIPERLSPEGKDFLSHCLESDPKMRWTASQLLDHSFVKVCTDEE
The target in assay [8] is Cyclin-dependent kinase 2 homolog (Plasmodium falciparum (isolate K1 / Thailand)) (UniProt Q07785). In words: Inhibition of Plasmodium falciparum PK5 assessed as residual activity at 1000 nM by KINOMEscan analysis relative to control.
Chain of Cyclin-dependent kinase 2 homolog (Plasmodium falciparum (isolate K1 / Thailand)) (Q07785 whole entry): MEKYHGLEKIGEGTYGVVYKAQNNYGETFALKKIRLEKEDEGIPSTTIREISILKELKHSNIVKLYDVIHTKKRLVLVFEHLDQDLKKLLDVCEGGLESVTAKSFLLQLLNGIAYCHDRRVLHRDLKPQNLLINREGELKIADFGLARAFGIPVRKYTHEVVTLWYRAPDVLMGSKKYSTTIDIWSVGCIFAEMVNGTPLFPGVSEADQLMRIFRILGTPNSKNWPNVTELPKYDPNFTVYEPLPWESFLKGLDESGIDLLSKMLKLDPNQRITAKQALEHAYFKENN
Assay [9] has as its target T2, Serine/threonine-protein kinase ULK2 (Homo sapiens) (UniProt Q8IYT8).
T2 sequence (whole entry): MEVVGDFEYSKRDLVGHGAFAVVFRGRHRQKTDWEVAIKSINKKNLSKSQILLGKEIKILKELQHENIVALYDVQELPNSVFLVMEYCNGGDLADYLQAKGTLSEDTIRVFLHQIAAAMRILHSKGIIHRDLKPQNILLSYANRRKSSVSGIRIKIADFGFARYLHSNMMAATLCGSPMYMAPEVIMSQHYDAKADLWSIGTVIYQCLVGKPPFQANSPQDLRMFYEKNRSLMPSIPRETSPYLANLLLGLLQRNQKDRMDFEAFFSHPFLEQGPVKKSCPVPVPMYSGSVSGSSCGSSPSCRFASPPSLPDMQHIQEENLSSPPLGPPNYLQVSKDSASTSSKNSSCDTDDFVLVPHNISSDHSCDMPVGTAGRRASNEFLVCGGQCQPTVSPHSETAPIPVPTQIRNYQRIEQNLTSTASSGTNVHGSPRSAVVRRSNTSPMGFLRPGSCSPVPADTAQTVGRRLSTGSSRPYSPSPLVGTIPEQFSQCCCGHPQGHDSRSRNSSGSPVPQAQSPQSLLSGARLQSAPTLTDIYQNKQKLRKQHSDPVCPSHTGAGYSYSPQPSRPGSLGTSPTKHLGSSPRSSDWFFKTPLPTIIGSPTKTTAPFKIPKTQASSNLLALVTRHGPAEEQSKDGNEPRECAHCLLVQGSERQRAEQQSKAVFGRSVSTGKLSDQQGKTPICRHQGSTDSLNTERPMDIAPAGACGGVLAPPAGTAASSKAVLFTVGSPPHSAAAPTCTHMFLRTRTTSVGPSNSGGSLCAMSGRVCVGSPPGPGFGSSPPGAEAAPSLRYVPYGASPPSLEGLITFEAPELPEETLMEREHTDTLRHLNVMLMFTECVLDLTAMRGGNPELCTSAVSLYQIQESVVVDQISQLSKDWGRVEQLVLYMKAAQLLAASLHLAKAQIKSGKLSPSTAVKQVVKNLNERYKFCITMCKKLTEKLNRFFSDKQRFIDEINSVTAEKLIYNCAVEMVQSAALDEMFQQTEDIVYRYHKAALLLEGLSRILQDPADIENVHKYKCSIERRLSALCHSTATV
In words: Inhibition of ULK2 (unknown origin) assessed as residual activity at 1000 nM by KINOMEscan analysis relative to control.

Each structure is given as a SMILES string.

Chain of Fibroblast growth factor receptor 2 (Homo sapiens) (P21802 22-821 limits assumed): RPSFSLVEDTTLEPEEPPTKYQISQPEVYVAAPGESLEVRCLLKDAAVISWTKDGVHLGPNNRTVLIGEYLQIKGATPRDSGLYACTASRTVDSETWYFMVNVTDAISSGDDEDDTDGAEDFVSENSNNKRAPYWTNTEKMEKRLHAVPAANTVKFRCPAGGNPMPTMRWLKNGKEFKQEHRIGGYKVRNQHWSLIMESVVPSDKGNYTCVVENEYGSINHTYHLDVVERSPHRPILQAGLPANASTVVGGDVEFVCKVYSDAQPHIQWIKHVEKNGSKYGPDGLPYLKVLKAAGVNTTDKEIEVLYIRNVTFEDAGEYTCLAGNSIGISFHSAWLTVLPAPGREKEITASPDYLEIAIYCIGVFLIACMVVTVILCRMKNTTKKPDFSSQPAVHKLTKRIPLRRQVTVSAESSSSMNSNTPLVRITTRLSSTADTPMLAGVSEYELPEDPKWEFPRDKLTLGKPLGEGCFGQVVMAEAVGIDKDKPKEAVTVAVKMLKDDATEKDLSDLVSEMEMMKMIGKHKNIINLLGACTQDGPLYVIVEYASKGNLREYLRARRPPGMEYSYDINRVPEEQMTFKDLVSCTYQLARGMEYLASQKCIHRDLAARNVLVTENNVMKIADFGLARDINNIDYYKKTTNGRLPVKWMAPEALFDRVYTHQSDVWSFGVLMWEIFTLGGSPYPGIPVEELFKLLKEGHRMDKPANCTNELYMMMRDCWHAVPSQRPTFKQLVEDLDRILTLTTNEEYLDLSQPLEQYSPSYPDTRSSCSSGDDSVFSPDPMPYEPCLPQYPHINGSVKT
Chain of Calcium/calmodulin-dependent protein kinase kinase 2 (Homo sapiens) (Q96RR4 2-588 limits assumed): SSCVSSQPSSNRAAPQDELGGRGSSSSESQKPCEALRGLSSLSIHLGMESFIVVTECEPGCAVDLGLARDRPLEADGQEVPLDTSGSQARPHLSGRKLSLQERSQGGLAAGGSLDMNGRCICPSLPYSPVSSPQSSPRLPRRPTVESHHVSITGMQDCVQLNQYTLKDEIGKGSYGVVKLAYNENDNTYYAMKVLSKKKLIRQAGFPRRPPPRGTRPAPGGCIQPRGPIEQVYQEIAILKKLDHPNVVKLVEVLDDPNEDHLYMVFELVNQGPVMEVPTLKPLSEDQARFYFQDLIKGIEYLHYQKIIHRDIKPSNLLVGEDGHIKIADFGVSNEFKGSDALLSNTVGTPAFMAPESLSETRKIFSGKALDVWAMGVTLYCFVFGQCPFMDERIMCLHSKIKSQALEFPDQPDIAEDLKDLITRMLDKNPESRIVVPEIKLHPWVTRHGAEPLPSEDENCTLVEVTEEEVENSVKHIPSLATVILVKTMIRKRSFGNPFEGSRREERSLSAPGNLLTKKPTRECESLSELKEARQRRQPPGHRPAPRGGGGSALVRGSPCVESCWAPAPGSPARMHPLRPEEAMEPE
Chain of Serine/threonine-protein kinase B-raf (Homo sapiens), P15056 [V600E] (P15056 whole entry V600E): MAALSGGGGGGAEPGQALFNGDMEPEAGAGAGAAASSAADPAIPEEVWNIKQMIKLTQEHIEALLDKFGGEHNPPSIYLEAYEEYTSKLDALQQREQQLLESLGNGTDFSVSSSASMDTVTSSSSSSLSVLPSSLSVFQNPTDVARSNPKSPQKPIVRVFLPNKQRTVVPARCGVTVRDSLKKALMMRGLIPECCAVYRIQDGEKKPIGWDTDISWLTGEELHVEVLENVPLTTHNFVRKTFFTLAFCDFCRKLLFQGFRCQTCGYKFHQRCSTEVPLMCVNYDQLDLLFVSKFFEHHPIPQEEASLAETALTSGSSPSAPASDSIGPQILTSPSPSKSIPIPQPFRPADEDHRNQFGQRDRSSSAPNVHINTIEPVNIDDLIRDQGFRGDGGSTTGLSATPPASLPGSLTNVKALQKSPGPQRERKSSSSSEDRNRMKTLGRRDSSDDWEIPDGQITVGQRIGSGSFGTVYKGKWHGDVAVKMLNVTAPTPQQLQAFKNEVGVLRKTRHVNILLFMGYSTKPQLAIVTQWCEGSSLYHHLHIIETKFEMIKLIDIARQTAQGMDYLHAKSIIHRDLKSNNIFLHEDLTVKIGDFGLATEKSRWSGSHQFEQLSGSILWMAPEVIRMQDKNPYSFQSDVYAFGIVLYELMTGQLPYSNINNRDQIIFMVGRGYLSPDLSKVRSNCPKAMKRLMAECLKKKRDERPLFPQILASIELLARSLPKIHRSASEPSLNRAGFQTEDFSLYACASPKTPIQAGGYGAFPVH

Regarding `COc1cc2nc(C)nc(N[C@H](C)c3cccc(-c4cn[nH]c4)c3)c2cc1OC`, the Activity was determined as 65% in [1]; 65% in assay [2]; 100% in [3]; 100% in [4]; 67% in assay [5]; 96% in [6]. For the same compound, the Activity in assay [7] was 50%; in assay [8], 98%; in assay [9] it was 60%.
Take `COc1cc2ncnc(N[C@H](C)c3cccc4ccccc34)c2cc1OC`: the Activity in assay [1] came out at 97%; in assay [2], 92%; in assay [3], 98%; in [4] it was 50%; in [5] it was 100%; in [6], 59%. The Activity worked out at 96% in assay [7], 100% in assay [8] and 92% in [9].
